Publication PMC8391236, “Effect of Pterostilbene, a Natural Derivative of Resveratrol, in the Treatment of Colorectal Cancer through Top1/Tdp1-Mediated DNA Repair Pathway” (Cancers, 2021)

Experiments:
[1] = tested on: Top1 in CL187 cells; assay: Intracellular Top1 enzyme activity assay; format: cell-based, Human; conditions: CL187 cells treated 6 h
Protocol: CL187 cells were treated with different concentrations of drugs for 6 h. The supernatant was discarded, and the cells were collected. The extracts of cytoplasm, mitochondria, and nucleus were obtained by the same method as described in Section 2.4.7. The protein concentration of each extract was detected by BCA kit. Enzyme activity reaction was carried out by using 125 ng super helical DNA (pHOT-1) and cell extract. The protein concentration of the extract was guaranteed to be the same in each group. The mixture solution of the pHOT-1 and the cell extract was added into the reaction buffer and incubated for 30 min at 37 °C. The reaction was terminated with loading buffer. The agarose gel electrophoresis was performed, and the images were collected.

[2] = tested on: siRNA-Tdp1 CL187 cells; assay: Cell viability of Tdp1-silenced cells; format: cell-based; conditions: Homo sapiens, 36 h, siRNA-Tdp1 CL187, 36 h
[3] = tested on: Top1 and Tdp1; assay: Top1 and Tdp1 in xenograft tumor tissues (WB, qPCR); format: in vivo, BABLc/nude mice; conditions: subcutaneous CL187 xenograft
Protocol: The 20 mg of the tumor was added into 1 mL RIPA lysis, and homogenized for 3 times under low temperature condition, and centrifuged at 12,000 rpm for 10 min. Subsequently, the supernatant was collected, and the contents of Top1 and Tdp1 were determined by WB as described in Section 2.4.4. The 20 mg of tumor was added into 1 mL Trizol, and homogenized for 3 times. The expression levels of Top1 and Tdp1 were analyzed using the method described in Section 2.4.5.

[4] = tested on: siRNA-Top1 CL187 cells; assay: Cell viability of Top1-silenced cells; format: cell-based, Human
Protocol: PTE or RE were dissolved in DMSO and diluted with culture medium to 1–100 μM. The final concentration of DMSO was less than 0.1%, and 0.1% DMSO as negative control. […] Exponentially growing cells were seeded in 96-well plates (5 × 10^3 cells/well) for 12 h. Various drugs were added separately and incubated for 24, 48, and 72 h. Cell viability was determined by CCK-8 (Beyotime Biotechnology, Shanghai, China) assay.

[5] = tested on: liver, kidney, lung, and paracancerous colon tissues; assay: HE staining of organs of orthotopic xenograft mice; format: in vivo; conditions: orthotopic xenograft nude mice
Protocol: (§1) The mice were anaesthetized with 10% chloral hydrate and fixed on the operating table. After the abdomen of the mice was disinfected with iodine, a small section of the large intestine was squeezed out of the surgical opening. The 0.1 mL (per mouse) CL187 cell suspension (1 × 10^7 /mL) was inoculated into the colon wall of nude mice. After the inoculation, the large intestine was placed into the mouse abdominal cavity. After the wound was sutured, the mice were put into cages until they naturally woke up. After 10 days of inoculation, the animals were randomly divided into 4 groups (6 mice per group). Vector control group was intraperitoneally injected with 5% DMSO and 95% saline containing 30% HP-β-CD (i.p.). The drug dosage was designed according to the results of the previous pharmacokinetic experiment. Experimental Group 1 was intraperitoneal injected (i.p.) with PTE 100 mg/kg, and experiment Group 2 was intragastric administrated (i.g.) with PTE 500 mg/kg, once a day. The bioavailability of PTE was the same in the animals in the above regimens. Positive control group was injected with irinotecan, 20 mg/kg, twice a week. During the experiment, the changes of body weight of nude mice were recorded. After 21 days, the nude mice were sacrificed, the tumor blocks were removed surgically, weighed, and recorded. Tumor and organ tissues were paraffin-embedded and sectioned into 4 mm after being fixed in 4% of paraformaldehyde solution for 24 h. The sections were deparaffinized and rehydrated before detection. For histological observation, tumor sections were stained with hematoxylin and eosin (HE), and then observed by an inverted microscopy (Olympus, Japan).

[6] = tested on: orthotopic CL187 xenograft; assay: Orthotopic CL187 xenograft model; format: in vivo, BABLc/nude mice; conditions: for Tumor Weight: 21 days; for Ki67 labeling rate in tumor tissue: vector control 46.53±3.86%
Protocol: as §1, with “recorded.” for “recorded. Tumor and organ tissues were paraffin-embedded and sectioned into 4 mm after being fixed in 4% of paraformaldehyde solution for 24 h. The sections were deparaffinized and rehydrated before detection. For histological observation, tumor sections were stained with hematoxylin and eosin (HE), and then observed by an inverted microscopy (Olympus, Japan).”
Tumor and organ tissues were paraffin-embedded and sectioned into […] after being fixed in 4% of paraformaldehyde solution for 24 h. The sections were deparaffinized and rehydrated before detection. For histological observation, tumor sections were stained with hematoxylin and eosin (HE), and then observed by an inverted microscopy (Olympus, Japan).
For immunohistochemistry analysis, the sections were treated with 3% hydrogen peroxide for 10 min to block endogenous peroxidase, and then incubated with Ki67 primary antibody for overnight at 4 °C. Subsequently, the sections were treated with secondary antibody at room temperature for 20 min. After being washed with PBS, the sections were incubated with DAB chromogenic solution for 10 min, followed by rewashing in PBS. The sections were counterstained with hematoxylin after DAB coloration. The antibody specificity was confirmed by negative control without primary antibody treatment. Immunopositive areas were observed by an inverted microscope (Olympus, Japan).

[7] = tested on: CL187 cells; assay: Apoptosis by flow cytometry (Annexin V-FITC/PI); format: cell-based, Human; conditions: 48 h
Protocol: Exponentially growing CL187 cells were seeded in 6-well plates (1.2 × 10^6 cells/well) until a well was filled with cells. The RE or PTE at various concentrations were added separately into plate wells and incubated with cells for 48 h. The incubated cells were collected and treated by Annexin V-FITC/PI Apoptosis Detection Kit. The stained cells were analyzed with a flow cytometer (Becton-Dickinson, Franklin Lakes, NJ, USA), and data analyses were performed with BD Cell Quest^TM pro 6.0..

COc1cc(/C=C/c2ccc(O)cc2)cc(OC)c1 [PTE, 3,5-dimethoxy-4′-hydroxy-trans-stilbene]
concentration with the same inhibitory effect on intracellular Top1 enzyme activity ([1]; cell extracts + SC DNA): 20 µM
Top1 enzyme activity in mitochondria ([1]; CPT at 50 μM): significantly inhibited
IC50 [2]: 34.2 ± 7.33 µM
mRNA expression of Top1 and Tdp1 in tumor tissues [3]: inhibited
protein contents of Top1 and Tdp1 in tumor tissues (WB) ([3]; especially high-concentration group): decreased significantly
IC50 ([4]; Homo sapiens, 24 h, siRNA-Top1 CL187, 24 h): 70 ± 16.2 µM
IC50 ([4]; Homo sapiens, 48 h, siRNA-Top1 CL187, 48 h): 31.9 ± 8.11 µM
IC50 ([4]; Homo sapiens, 72 h, siRNA-Top1 CL187, 72 h): 20.2 ± 4.1 µM
IC50 ([4]; siRNA-Top1 CL187, 72 h): ~20 µM
effect on lung inflammation (HE sections) [5]: no significant effect on lung inflammation
damage to the liver (HE sections) ([5]; treatment group vs solvent control): caused no additional damage
Tumor Weight ([6]; 100 mg/kg-i.p. once a day): 0.51 ± 0.12 g
Ki67 labeling rate in tumor tissue ([6]; 100 mg/kg-i.p.): 4.89 ± 1.82%
Tumor Weight ([6]; 500 mg/kg-i.g. once a day): 0.60 ± 0.06 g
Ki67 labeling rate in tumor tissue ([6]; 500 mg/kg-i.g.): 12.03 ± 3.40%
apoptosis rate (early and late apoptotic cells) ([7]; CL187, 10 μM): 28.95%
apoptosis rate (early and late apoptotic cells) ([7]; CL187, 20 μM): 29.69%
apoptosis rate (early and late apoptotic cells) ([7]; CL187, 50 μM): 25.76%
